Where a name gives a salt, the structure may show the parent alone.
Tests used:
[1] = test system: NAFLD induced by HFD; experiment: Mouse NAFLD model induced by HFD, H&E staining; format: in vivo, C57BL/6J male mice; details: HFD diet mice, 10, 50, 150 mg/kg by gavage bid, 8 weeks, vs untreated group, FIG. 9
Protocol: (§1) • (1) C57BL/6J male mice aged 6 to 8 weeks were selected and randomly divided into normal diet group (n=10) and HFD or CHOL group; the weight changes of the mice were recorded during the modeling period, and the modeling was conducted for 8 weeks (CHOL) or 10 weeks (HFD), then the mice in the HFD or CHOL group were randomly divided into groups according to their body weights, plus the negative control group, a total of 5 groups:
(§2) (2) Mice in the negative control group (n=10): The animals were fed with normal diet, and 200 μL of drinking water was administered by gavage, bid.
(§3) Mice in HFD or CHOL group (n=10): The animals were fed with HFD or CHOL diet, and 200 μL of normal saline was administered by gavage at the same time, bid. (Note: HFD (60% high fat) feed (Whitby Technology Development (Beijing) Co., Ltd.) (D12492), CHOL (40% high fat +1.25% cholesterol) feed (Whitby Technology Development (Beijing) Co., Ltd.) (D12108C)) (3) Mice in Compound 6-low dose group (n=10): The animals were fed with HFD or CHOL diet, and administrated simultaneously with Compound 6 at a dose of 10 mg/kg by gavage, bid.
(§4) (4) Mice in Compound 6-middle dose group (n=10): The animals were fed with HFD or CHOL diet, and administrated simultaneously with Compound 6 at a dose of 50 mg/kg by gavage, bid. […]

[2] = test system: NAFLD induced by CHOL; experiment: Mouse NAFLD model induced by CHOL, H&E staining; format: in vivo, C57BL/6J male mice; details: CHOL diet mice, 10, 50, 150 mg/kg by gavage bid, 8 weeks, vs untreated group, FIG. 10
Protocol: as §1, §2, §3, §4

[3] = test system: collagen I; experiment: Activated LX2 cells (TGFβ1), Western blot: Collagen I; format: cell-based; details: LX2 cells stimulated with TGFβ1 (5 ng/mL), 24 hours, FIG. 4

Structure (SMILES)	lipid droplet aggregation in the liver tissue of mice (H&E) [1]	lipid droplet aggregation in the liver tissue of mice (H&E) [2]	expression of Collagen I in the cells [3]
COC(=O)C[C@H](N)C(=O)O [Compound 6]	reduced in a dose-dependent manner	reduced in a dose-dependent manner	
COC(=O)C[C@H](N)C(=O)OCOC(=O)[C@@H](N)CC(=O)OC [Compound 54, 4-dimethyl O′1,01-methylene (2S,2'S)-bis (2-aminosuccinate) hydrochloride]			significantly decreased
